Test results taken from patent publication US20200061007A1, “CANCER STEM CELL PROLIFERATION INHIBITOR” (NATIONAL INSTITUTE OF ADVANCED INDUSTRIAL SCIENCE AND …, priority 2014, published 2020).

Experiments:
[1] = tested on: human prostate cancer cell line LNCaP; assay: Tumor volume, LNCaP/nude mice; assay type: in vivo
Description: A tumor piece of a human prostate cancer cell line LNCaP containing cells positive for cancer stem cell markers was subcutaneously transplanted to the dorsal part of each of 6-week-old female BALB/cAJc1-nu nude mice (4 mice/group) using a trocar needle. At the time when the tumor volume reached 100 to 200 mm^3, the administration was started. Am80 was orally administered once a day at a dose of 1 mg/kg for 21 continuous days, and DXL was intravenously administered at a dose of 5 mg/kg from Day 1, 3 times at intervals of 4 days. In the combination group, the agents were administered at the same doses as, and by the same administration methods as, those in the cases of administration of each single agent. Measurement of the tumor diameter was carried out until the next day of the completion of the administration (Day 22). The longitudinal diameter and the transverse diameter of the tumor were measured using a caliper, and the tumor volume (mm^3) was determined according to the following formula: longitudinal diameter×transverse diameter^2/2. In the control group, physiological saline was intraperitoneally administered from Day 1, 3 times at intervals of 4 days.

[2] = tested on: human pancreatic cancer cells subcutaneously transplanted to nude mice; assay: Pathologic samples of tumor, morphology of cellular tissue; assay type: in vivo; conditions: Am80 3 mg/kg/day for 1 month, vs control
Description: Pancreatic cancer cells (1×10^6 cells) containing pancreatic cancer stem cells were subcutaneously transplanted to nude mice. Mice in which tumor formation was found 2 weeks later were subjected to administration of Am80 for 1 month at 3 mg/kg/day. Pathologic samples of each tumor were prepared to evaluate morphology of cellular tissue.

[3] = tested on: Pdx1, glucagon gene expression in human pancreatic cancer cell spheroids; assay: Quantitative RT-PCR of pancreatic tissue differentiation markers; assay type: cell-based; conditions: suspension culture with Am80 for 1 week
Description: Subsequently, total RNA was extracted from pancreatic cancer cells prepared by performing suspension culture in the presence of Am80 for 1 week, and quantitative RT-PCR was carried out using primers specific to pancreatic tissue-specific differentiation markers.

[4] = tested on: human breast cancer cell line MCF-7; assay: Growth inhibition of MCF-7 in vitro; assay type: cell-based; conditions: Homo sapiens, MCF7; MCF-7, 96 hours of exposure, RPMI1640 with 2% FBS
Description: A human breast cancer cell line MCF-7, containing cells positive for cancer stem cell markers, was cultured in RPMI1640 medium supplemented with 2% FBS, and the growth inhibitory action by the combination of Am80 and 5-AZ was studied. The IC50 values of the agents determined by 96 hours of the exposure were 1 μM and 20 μM, respectively. Thus, in order to study the growth inhibitory action, Am80 was used within the concentration range of 0.125 μM to 1 μM with a common ratio of 2, and 5-AZ was used within the concentration range of 2.5 μM to 20 μM with a common ratio of 2. In cases of use of these agents in combination, the growth inhibitory action was studied using these concentrations.

[5] = tested on: human pancreatic cancer cells MIA-Paca2; assay: Tumor volume, MIA-Paca2/nude mice; assay type: in vivo
Description: A tumor piece of human pancreatic cancer cells MIA-Paca2 containing cells positive for cancer stem cell markers was subcutaneously transplanted to the dorsal part of each of 6-week-old female BALB/cAJc1-nu nude mice (4 mice/group, 5 mice only for the control group) using a trocar needle. At the time when the tumor volume reached 100 to 200 mm^3, the administration was started. Am80 was orally administered once a day at a dose of 2 mg/kg for 21 continuous days, and DXL was intravenously administered at a dose of 5 mg/kg from Day 1, 3 times at intervals of 4 days. In the combination group, the agents were administered at the same doses as, and by the same administration methods as, those in the cases of administration of each single agent. Measurement of the tumor diameter was carried out until the next day of the completion of the administration (Day 22). Based on the measured values of the longitudinal diameter and the transverse diameter, the tumor volume (mm^3) was determined according to the following formula: longitudinal diameter×transverse diameter^2/2. In the control group, physiological saline was intraperitoneally administered from Day 1, 3 times at intervals of 4 days.

[6] = tested on: human pancreatic cancer cells containing pancreatic cancer stem cells; assay: Liver metastasis after transplantation to the pancreas of nude mice; assay type: in vivo; conditions: Am80 3 mg/kg/day for 1 month
Description: Pancreatic cancer cells (1×10^6 cells) containing pancreatic cancer stem cells were transplanted to the pancreas of nude mice, and the size of a tumor formed by metastasis to the liver was measured 1 month later. Am80 was administered at 3 mg/kg/day for 1 month.

[7] = tested on: human prostate cancer cell line LNCaP; assay: Growth inhibition of LNCaP in vitro; assay type: cell-based; conditions: Homo sapiens, 96 hours of exposure, RPMI1640 with 10% FBS
Description: A human prostate cancer cell line LNCaP, containing cells positive for cancer stem cell markers, was cultured in RPMI1640 medium supplemented with 10% FBS, and the growth inhibitory action by the combination of Am80 and 5-AZ was studied. […] Thus, in order to study the growth inhibitory action, Am80 was used within the concentration range of 0.125 μM to 1 μM with a common ratio of 2, and 5-AZ was used within the concentration range of 1.56 μM to 12.5 μM with a common ratio of 2. In cases of use of these agents in combination, the growth inhibitory action was studied using these concentrations.

CC1(C)CCC(C)(C)c2cc(NC(=O)c3ccc(C(=O)O)cc3)ccc21 [Am80, tamibarotene]
tumor volume Day 1 ([1]; Am80 1 mg/kg oral daily 21 days, DXL 5 mg/kg i.v. 3 times at intervals of 4 days, Day 1): 121.3 mm^3 | tumor volume Day 5 ([1]; Am80 1 mg/kg oral daily, DXL 5 mg/kg i.v., Day 5): 162.1 mm^3 | tumor volume Day 9 ([1]; Am80 1 mg/kg oral daily, DXL 5 mg/kg i.v., Day 9): 205.8 mm^3 | tumor volume Day 13 ([1]; Am80 1 mg/kg oral daily, DXL 5 mg/kg i.v., Day 13): 282.8 mm^3 | tumor volume Day 17 ([1]; Am80 1 mg/kg oral daily, DXL 5 mg/kg i.v., Day 17): 409.9 mm^3 | tumor volume Day 22 ([1]; Am80 1 mg/kg oral daily, DXL 5 mg/kg i.v., Day 22): 436.3 mm^3 | morphology of pancreatic cancer tissue [2]: differentiated morphology | gene expression of Pdx1, glucagon and the like [3]: increased gene expression dependently on the Am80 concentration | IC50 [4]: 1000 nM | tumor volume Day 1 ([5]; Am80 2 mg/kg oral daily 21 days, DXL 5 mg/kg i.v. 3 times at intervals of 4 days, Day 1): 151.3 mm^3 | tumor volume Day 5 ([5]; Am80 2 mg/kg oral daily, DXL 5 mg/kg i.v., Day 5): 182.1 mm^3 | tumor volume Day 9 ([5]; Am80 2 mg/kg oral daily, DXL 5 mg/kg i.v., Day 9): 255.5 mm^3 | tumor volume Day 13 ([5]; Am80 2 mg/kg oral daily, DXL 5 mg/kg i.v., Day 13): 348.8 mm^3 | tumor volume Day 17 ([5]; Am80 2 mg/kg oral daily, DXL 5 mg/kg i.v., Day 17): 429.9 mm^3 | tumor volume Day 22 ([5]; Am80 2 mg/kg oral daily, DXL 5 mg/kg i.v., Day 22): 466.4 mm^3 | metastasis of the pancreatic cancer (size of tumor formed by metastasis to the liver) [6]: could be suppressed compared to the control | IC50 [7]: 2000 nM
